CN1C(C(=O)Nc2ccccn2)=C(O)c2sc(Cl)cc2S1(=O)=O
Conditions	solubility (mole fraction)
in PEG-400, 298.15 K	0.00855
in PEG-400, 303.15 K	0.0101
in PEG-400, 308.15 K	0.0114
in PEG-400, 313.15 K	0.0129
in PEG-400, 323.15 K	0.0169

solubility (mole fraction)
Conditions	in ethanol	in ethyl acetate	in ethylene glycol	in isopropanol	in n-butanol	in propylene glycol	in sec-butanol	in transcutol	in water
298.15 K	8.43e-06	8.39e-05	0.000224	9.05e-06	1.36e-05	3.17e-05	2.99e-05	0.000317	2.91e-06
303.15 K	1.16e-05	9.08e-05	0.000334	1.16e-05	1.55e-05	3.6e-05	3.59e-05	0.000382	4.12e-06
308.15 K	1.45e-05	9.86e-05	0.000474	1.45e-05	1.75e-05	4.05e-05	4.19e-05	0.000462	5.52e-06
313.15 K	1.98e-05	0.000107	0.000634	1.81e-05	1.99e-05	4.5e-05	4.78e-05	0.000552	7.27e-06
323.15 K	3.22e-05	0.000121	0.00108	2.67e-05	2.39e-05	5.4e-05	6.58e-05	0.000743	1.19e-05

Reference: BigSolDB 2.1
